{
  "source": "paper PMC11892739",
  "about": "“Site-specific molecular glues for the 14-3-3/Tau pS214 protein–protein interaction via reversible covalent imine tethering” (RSC Medicinal Chemistry, 2025)",
  "key": {"[1]": {"test_system": "14-3-3γ/Tau pS324 interaction", "assay": "Fluorescence anisotropy 14-3-3γ titration with compound and monovalent Tau pS324 peptide", "assay_type": "binding", "details": "for apparent cooperativity factor (app. α), 14-3-3γ/Tau pS324: 2D titrations, 14-3-3γ titrated at varied compound concentrations, saturation of the ratio", "procedure": "FA assays in which 14-3-3γ was titrated to a constant concentration of compound (250 μM) in the presence of the distinct monovalent Tau peptide (10 nM) were performed.\nThe determined stabilization factors are concentration-dependent (here 250 μM of compound) and might differ based on assay design. […] The app. α-factors of these compounds for both 14-3-3/Tau complexes were determined by 14-3-3γ titrations in the presence of varied concentrations of the particular compound (Fig. 5d and e). Both compounds reached saturation for both 14-3-3γ/Tau complexes enabling accurate determination of the α-factor. The app. α-factors of aldehydes 1 and 18 were plotted for both 14-3-3γ/Tau complexes to investigate phospho-binding site selective cooperativity (Fig. 5f and h). To do so, the stabilization factors at a given compound concentration were plotted against the compound concentration, leading to the determination of the app. α-factors. […]\nchromatography (HisTrap high performance cartridges, Cytiva). […] Dialyzed protein was concentrated to ∼40 mg/mL, analyzed by Q -Tof LC/MS, and aliquots were flash -frozen for storage at −80 °C. […] Fractions containing the 14 -3-3 protein were pooled and concentrated to ∼60 mg/mL, analyzed Q -Tof LC/MS, and aliquots were flash -frozen for storage at −80°C.\nFluorescence Anisotropy – compound titration\nCompound titration assays were performed by titrating compounds (in 1% DMSO, starting at 500 μM) in a 2-fold dilution series to preformed complex of fluorescein -labeled Tau pS2 (10 nM) and 14 -3-3ζ (100 nM) (which represents approximately 20% bound Tau pS2 peptide to 14 -3-3ζ to allow further complex formation by addition of fragments 1) in FA buffer (10 mM HEPES pH 7.4, 150 mM NaCl, 50 µM TCEP, 0.1% (v/v) Tween20, 0.1% (w/v) BSA). […] Measurements were performed directly after plate preparation, using a Tecan SPARK plate reader at room temperature ( λex: 485±20 nm; λem: 535±25 nm; mirror: automatic; flashes: 30; settle time: 1 ms; gain: optimal; Z -position: calculated from well). […]"}, "14-3-3/Pin1 complex": {"test_system": "14-3-3/Pin1 complex", "design": "method as in PMID 34047554", "details": "100 μM compound; cited from earlier work"}},
  "data": [
    {"smiles": "CCc1ccc(-c2nccn2-c2ccc(C=O)c(Br)c2)cc1", "note": "[Compound 18]", "values": [
      {"measurement": "SF250μM for the 14-3-3γ/Tau pS324 complex", "setting": "[1]; 250 μM compound, 10 nM Tau pS324 peptide, internal DMSO reference", "value": 3.2},
      {"measurement": "apparent cooperativity factor (app. α), 14-3-3γ/Tau pS324", "setting": "[1]", "value": 3.6}
    ]},
    {"smiles": "O=Cc1ccc(-n2ccnc2-c2ccccc2)cc1Br", "note": "[Compound 1]", "values": [
      {"measurement": "SF100μM for stabilization of the 14-3-3/Pin1 complex", "setting": "14-3-3/Pin1 complex", "value": 10},
      {"measurement": "apparent cooperativity factor (app. α), 14-3-3γ/Tau pS324", "setting": "[1]", "value": 6.8}
    ]}
  ]
}
